The record followed here is ChEMBL document CHEMBL1201862, “PubChem BioAssay data set” (2004).

Holding throughout (assay): NCI tumour cell line growth inhibition, 48 h
Assay [1] relates to SN12C.
The test system of assay [2] is SF-295.
The subject of assay [3] is NCI-H522.
The subject of assay [4] is CAKI-1.
Assay [5] has as its system MCF7.
Assay [6] has as its system SK-MEL-2.
For assay [7], the system named is SW-620.
Assay [8] relates to SF-268.
Assay [9] deals with UO-31.
Assay [10] concerns K562.
In assay [11] the test system is Malme-3M.
Assay [12] deals with SK-MEL-5.
Assay [13] has as its system 786-0.
Assay [14] concerns ACHN.
Assay [15] has as its system HCT-15.
The subject of assay [16] is OVCAR-3.
Assay [17] concerns U-251.
Assay [18] concerns CCRF-CEM.
For assay [19], the system named is UACC-257.
Assay [20] deals with RXF 393.

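Five concentrations, 48 hours, 96-well plates. Abbreviation: GI50, concentration required for 50% inhibition of growth.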 Calls of active or inactive are those of the source. Rule as the data show it: active = GI50 up to about 1.1 µM and inactive = higher. A value given as a limit tells only on which side of the number the result lay.

Turning to `CC1CNC(NS(=O)(=O)c2cc(C(=O)Nc3ccc(F)cc3)c(Cl)cc2S)=NN1` (configuration not stated), the GI50 is > 100 µM (inactive) in assay [1]; 66.5 µM (inactive) in [2]; 33.3 µM (inactive) in [3]; > 100 µM (inactive) in assay [4]; 41 µM (inactive) in [5]; 28.3 µM (inactive) in [6]. Moreover, the GI50 in assay [7] is 45.3 µM (inactive); in assay [8], 50.4 µM (inactive); in [9], > 100 µM (inactive); in assay [10] it was 32.8 µM (inactive); in assay [11], 29.1 µM (inactive); in assay [12], 26.2 µM (inactive). Also, the GI50 in assay [13] was > 100 µM (inactive); in [14] it was 77.4 µM (inactive); in assay [15], 37.8 µM; in assay [16] it was 92.9 µM (inactive); in [17], 48.4 µM (inactive); in [18] it was 42.5 µM (inactive). Moreover, the GI50 in [19] is > 100 µM (inactive).
In the case of `COc1ccc2cc(/C=N/NC(=O)Nc3ccccc3)ccc2c1`, the GI50 in [1] is > 100 µM (inactive); in [2], > 100 µM (inactive); in assay [20], > 10 µM (inactive); in [4] it was > 100 µM (inactive); in assay [5], > 100 µM (inactive); in [6] it was > 100 µM (inactive). The GI50 was > 100 µM (inactive) in assay [7]; > 100 µM (inactive) in assay [9]; > 100 µM (inactive) in [10]; > 100 µM (inactive) in assay [11]; > 100 µM (inactive) in assay [12]; above 100 µM in assay [15]. Further, the GI50 in assay [16], in assay [17], in assay [18] and in [19] was > 100 µM (inactive) each time.
With `COC(O)C(=O)c1ccc2c(c1)CC1(C2)Cc2cc3c(cc2C1=O)CCC3` (configuration not stated), the GI50 is 15.3 µM (inactive) in [1]; 23.7 µM (inactive) in [2]; 19 µM (inactive) in [3]; 16.9 µM (inactive) in assay [4]; 17.3 µM (inactive) in [5]; 23.2 µM (inactive) in assay [6]. The GI50 is 14.5 µM (inactive) in assay [7]; 19.4 µM (inactive) in [8]; 16.9 µM (inactive) in assay [9]; 2.94 µM (inactive) in [10]; 16.2 µM (inactive) in assay [11]; 16 µM (inactive) in [12]. Besides, the GI50 was 17.6 µM (inactive) in assay [13]; 17 µM (inactive) in assay [14]; 22.2 µM in assay [15]; 18.9 µM (inactive) in assay [16]; 18.4 µM (inactive) in assay [17]; 11.9 µM (inactive) in assay [18]. For the same molecule, in [19], the GI50 was 21.4 µM (inactive).
`CCCCCCCNC(P(=O)(O)O)P(=O)(O)O`: the GI50 in [1], in assay [2], in [3], in assay [4], in assay [5] and in assay [6] was > 100 µM (inactive) each time. Besides, the GI50 in assay [7] was > 100 µM (inactive); in assay [8], > 100 µM (inactive); in [9] it was > 100 µM (inactive); in assay [10], > 100 µM (inactive); in assay [11], > 100 µM (inactive); in [12], 97.3 µM (inactive). Moreover, the GI50 in assay [13] is > 100 µM (inactive); in assay [14], > 100 µM (inactive); in [15], above 100 µM; in assay [16], > 100 µM (inactive); in assay [17], > 100 µM (inactive); in [18], > 100 µM (inactive). Moreover, the GI50 in [19] was > 100 µM (inactive).
In the case of `O=C(CCC(=O)Nc1ccccc1C(F)(F)F)N/N=C1\C(=N\NC(=O)CCC(=O)Nc2ccccc2C(F)(F)F)C(c2ccc3c(c2)OCO3)Oc2ccccc21` (configuration not stated), the GI50 in [1] was 6.46 µM (inactive); in assay [2], 8.32 µM (inactive); in [20], 11.8 µM (inactive); in [3] it was 4.74 µM (inactive); in [4] it was 10.1 µM (inactive); in assay [6], > 31.9 µM (inactive). The GI50 was 6.22 µM (inactive) in assay [7]; 3.01 µM (inactive) in assay [8]; 5.64 µM (inactive) in assay [9]; 3.54 µM (inactive) in [10]; > 100 µM (inactive) in assay [11]; 7.74 µM (inactive) in [12]. Moreover, the GI50 in [13] is 8.63 µM (inactive); in assay [14], 6.46 µM (inactive); in assay [15], 5.33 µM; in assay [16] it was 3.43 µM (inactive); in assay [17] it was 4.97 µM (inactive); in assay [18], 4.26 µM (inactive). Further, in assay [19], the GI50 is > 100 µM (inactive).
As to `COC1=CC(=O)c2ccccc2C1(C)C1=NC(C)(C)CO1` (configuration not stated), the GI50 in assay [1], in assay [2], in assay [20], in [3], in assay [4] and in assay [6] was > 100 µM (inactive) throughout. Besides, the GI50 in assay [7], in assay [8], in assay [9], in assay [10], in assay [11] and in [12] was > 100 µM (inactive) each time. Besides, the GI50 in assay [13] is > 100 µM (inactive); in assay [14], > 100 µM (inactive); in [15], above 100 µM; in assay [16], > 100 µM (inactive); in assay [17] it was > 100 µM (inactive); in [18] it was > 100 µM (inactive). Moreover, in assay [19], the GI50 was > 100 µM (inactive).
Take `CCCCCCCCCCC(C)CCCCCCC(=O)O` (configuration not stated): the GI50 in assay [1], in assay [2], in assay [20], in assay [3], in assay [4] and in [6] was > 100 µM (inactive) in each case. Moreover, the GI50 in assay [7], in assay [8], in assay [9], in assay [10], in [11] and in [12] was > 100 µM (inactive) in each case. Moreover, the GI50 in assay [13] is > 100 µM (inactive); in assay [14], > 100 µM (inactive); in assay [15], above 100 µM; in assay [16], > 100 µM (inactive); in [17], > 100 µM (inactive); in [18], > 100 µM (inactive). Besides, the GI50 in assay [19] was > 100 µM (inactive).
With `COC(=O)C1=C(C(=O)OC)C(N(C)C)C(C(=O)OC)=C(C(=O)OC)S1`, the GI50 in [1], in [2], in assay [20], in assay [4], in [5] and in assay [6] was > 100 µM (inactive) each time. Besides, the GI50 in assay [7], in [8], in assay [9], in assay [10], in [13] and in assay [14] was > 100 µM (inactive) each time. Besides, the GI50 is above 100 µM in [15], > 100 µM (inactive) in [16], > 100 µM (inactive) in [17] and > 100 µM (inactive) in assay [19].
`CCOC(=O)/C(=N/Nc1ccc(Cl)cc1)N1C(=S)N(C)N=C(C)C=C1S`: the GI50 was 29.6 µM (inactive) in assay [1]; 20.5 µM (inactive) in assay [2]; 11.7 µM (inactive) in assay [20]; 22.1 µM (inactive) in [3]; 54.5 µM (inactive) in assay [4]; > 100 µM (inactive) in assay [5]. Also, the GI50 in [6] is 57.7 µM (inactive); in [7] it was > 100 µM (inactive); in [8] it was 29.9 µM (inactive); in assay [9] it was > 100 µM (inactive); in assay [10], > 100 µM (inactive); in assay [12], > 100 µM (inactive). Further, the GI50 in assay [14] was > 100 µM (inactive); in [15] it was above 100 µM; in assay [16], 81.3 µM (inactive); in assay [17], 15.9 µM (inactive); in assay [18], > 100 µM (inactive); in assay [19], > 100 µM (inactive).
Consider `O=C(O)c1cc2c3c(c1)[C@H]1C=CC[C@H]1CN3CC1CC=CC21` (some centres not stated), for which the GI50 in assay [1], in assay [2], in assay [20], in [3], in assay [4] and in assay [6] was > 100 µM (inactive) throughout. Also, the GI50 in assay [7], in assay [8], in assay [9], in assay [10], in assay [11] and in assay [12] was > 100 µM (inactive) each time. The GI50 in [13] was > 100 µM (inactive); in [14], > 100 µM (inactive); in assay [15] it was above 100 µM; in [16], > 100 µM (inactive); in assay [17], > 100 µM (inactive); in assay [18], > 100 µM (inactive). Moreover, the GI50 in [19] was > 100 µM (inactive).
Consider `COc1ccc(C23C(=O)c4ccccc4N2O[C@H]2C(=O)N(c4ccccc4)C(=O)[C@H]23)cc1` (some centres not stated), for which the GI50 in [1] is > 100 µM (inactive); in assay [2], > 100 µM (inactive); in assay [20], > 100 µM (inactive); in [3], 14 µM (inactive); in [4], > 100 µM (inactive); in [6] it was > 100 µM (inactive). Besides, the GI50 in assay [7], in assay [8], in assay [9], in assay [10], in assay [11] and in assay [12] was > 100 µM (inactive) throughout. In addition, the GI50 in assay [13] was > 100 µM (inactive); in assay [14], > 100 µM (inactive); in [15], above 100 µM; in assay [16], > 100 µM (inactive); in assay [17] it was > 100 µM (inactive); in assay [18], > 100 µM (inactive). In addition, the GI50 in assay [19] was > 100 µM (inactive).
